Data as given in ChEMBL document CHEMBL1201862, “PubChem BioAssay data set” (2004).
Calls of active or inactive are those of the source.

Experiments:
[1] = growth suppression of PTEN-null colon cells, dose response, cell-based, HCT116 PTEN knockout (AID 1047); type: functional;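 also: HCT116 colon tumor cells with PTEN knocked out; cells exposed to compound for 60 hours before readout; potency for loss of cell viability measured by luminescence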
[2] = growth suppression of beta-catenin-knockout colon cells, dose response, cell-based, HCT116, human colon tumor (AID 1045); type: functional;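 also: HCT116 colon tumor cells with beta catenin knocked out; cells exposed to compound for 60 hours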
[3] = molecular target: T1, Polyadenylate-binding protein 1 (Homo sapiens, UniProt P11940); experiment: PABP1 MLLE–PAM2 interaction inhibitors, dose response, miRNA deadenylation inhibitor project, biochemical, fluorescence polarization, Cy5-PAM2 peptide, secondary (AID 602260); type: functional; conditions: read-out: IC50_Mean
T1 sequence (P11940 whole entry): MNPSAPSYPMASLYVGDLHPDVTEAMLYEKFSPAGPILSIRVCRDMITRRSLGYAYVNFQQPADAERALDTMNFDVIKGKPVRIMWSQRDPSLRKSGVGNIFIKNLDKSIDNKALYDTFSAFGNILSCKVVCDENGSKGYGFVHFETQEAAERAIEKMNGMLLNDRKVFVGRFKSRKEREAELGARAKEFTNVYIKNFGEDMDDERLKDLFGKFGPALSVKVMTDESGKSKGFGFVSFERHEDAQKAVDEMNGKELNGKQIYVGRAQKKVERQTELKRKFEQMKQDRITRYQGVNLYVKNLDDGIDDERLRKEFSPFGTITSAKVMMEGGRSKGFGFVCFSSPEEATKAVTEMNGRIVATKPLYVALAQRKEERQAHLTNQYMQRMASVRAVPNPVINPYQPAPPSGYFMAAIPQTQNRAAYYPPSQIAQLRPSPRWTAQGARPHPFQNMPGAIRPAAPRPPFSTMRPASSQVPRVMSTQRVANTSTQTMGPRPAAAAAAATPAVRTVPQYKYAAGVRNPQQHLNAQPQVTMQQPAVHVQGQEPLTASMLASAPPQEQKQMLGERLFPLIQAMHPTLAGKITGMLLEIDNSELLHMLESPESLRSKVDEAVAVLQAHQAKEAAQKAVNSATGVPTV

[4] = molecular target: T1, Polyadenylate-binding protein 1; experiment: PABP1 MLLE–PAM2 binding inhibitor potency, dose response, biochemical, fluorescence polarization, FITC-PAM2 peptide (AID 602259); type: functional; conditions: read-out: IC50_Mean
[5] = Luminescence Cell-Based Dose Retest to Confirm Inhibitors of Cancer Stem Cells. [Related pubchem assays (depositor defined):AID2717, AID2721]; type: functional; conditions: Homo sapiens
[6] = cytotoxicity in HEK-293T cells, dose response, cytotoxicity control for TCR NF-kB inhibitor project, luminescence, T-cell screen hits (AID 489026); type: functional, cell-based;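 also: cells exposed to compound about 14 hours before the viability readout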
Vero = experiment: cells; type: functional; conditions: Chlorocebus sabaeus
Paired box protein Pax-8 = Paired box protein Pax-8 (Homo sapiens, UniProt Q06710); experiment: inhibitors of PAX8-driven TPO luciferase reporter, dose response, RMG-I cells, cherry-pick (AID 687027); type: functional, cell-based;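 also: luciferase reporter driven by Pax8 target thyroperoxidase promoter measured by SteadyGlo luminescence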
Paired box protein Pax-8, sequence (Q06710 whole entry): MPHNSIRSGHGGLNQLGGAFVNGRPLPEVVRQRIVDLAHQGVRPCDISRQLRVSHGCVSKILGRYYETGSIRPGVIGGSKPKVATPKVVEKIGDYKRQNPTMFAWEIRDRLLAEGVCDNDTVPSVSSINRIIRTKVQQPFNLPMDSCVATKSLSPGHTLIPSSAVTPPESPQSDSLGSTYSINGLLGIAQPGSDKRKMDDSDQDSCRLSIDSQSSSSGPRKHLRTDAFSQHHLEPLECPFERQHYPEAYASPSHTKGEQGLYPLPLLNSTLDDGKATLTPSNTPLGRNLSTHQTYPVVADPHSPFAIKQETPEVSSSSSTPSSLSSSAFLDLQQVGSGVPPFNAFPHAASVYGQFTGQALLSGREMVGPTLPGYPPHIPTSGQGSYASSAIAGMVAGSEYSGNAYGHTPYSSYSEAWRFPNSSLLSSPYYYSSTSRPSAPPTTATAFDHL

[7] = P. falciparum Dd2 growth inhibitors, dose response, SYBR Green, cherry-picked samples (AID 1159567); type: functional, cell-based
[8] = HEp-2 cell cytotoxicity, dose response, cytotoxicity control for RSV inhibitor project, HTS (AID 2410); type: functional; conditions: human respiratory syncytial virus
[9] = Shn3 3'UTR reporter inhibitors, dose response, cell-based, Clone20 osteoblasts, firefly luciferase, cherry-picked (AID 624132); type: functional;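 also: firefly luciferase luminescence from reporter carrying the Shn3 3'UTR in osteoblasts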
[10] = HepG2 cell cytotoxicity, dose response, cytotoxicity control for Shn3 inhibitor project, CellTiter-Glo, cherry-picked (AID 624134); type: functional, cell-based
[11] = control 3'UTR Renilla luciferase suppression, dose response, counter-screen for Shn3 inhibitor project, cell-based, Clone20-Shn3RL, cherry-picked (AID 624133); type: functional
[12] = inhibitors of intracellular T. cruzi replication, confirmation, NIH3T3 host cells, beta-gal luminescence (AID 2044); type: functional, cell-based;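 also: intracellular parasites grown in NIH/3T3 mouse fibroblasts as host cells; luminescent beta-galactosidase reporter signal from transgenic T. cruzi replicating inside host cells; inhibitors lower the luminescence signal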
[13] = cytotoxicity toward NIH3T3 fibroblasts, dose response, counter-screen, cell-based, ATP luminescence, mouse fibroblasts (AID 2010); type: functional;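 also: cells exposed to compound for about 90 hours before reading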
[14] = inhibitors of firefly luciferase expression or activity, dose response, H4 neuroglioma cells, luminescence (AID 1990); type: functional, cell-based
[15] = system: Streptococcus sp. 'group A'; experiment: growth inhibition of control SK(-) GAS strain, dose response, counter-screen for streptokinase expression inhibitor project, luminescence, kanamycin, BacTiterGlo, confirmation (AID 1900); type: functional, organism-based
BJ [16] = experiment: cytotoxicity toward BJ-TERT fibroblasts, dose response, cell-based, RAS-independent, luminescence (AID 1933); type: functional; conditions: Homo sapiens
[17] = Luminescence Cell-Based Dose Response HTS to Identify Inhibitors of 5'UTR Stem-Loop Driven Prion Protein mRNA Translation in H4 Neuroglioblastoma Cells. [Related pubchem assays: 1827 (Project Summary), 1813 (Primary HTS)]; type: functional
[18] = inhibitors of SNCA 5'UTR-driven reporter translation, confirmation, H4 neuroglioma cells, luminescence (AID 1988); type: functional, cell-based
Streptokinase A = molecular target: T2, Streptokinase A (Streptococcus pyogenes serotype M1, UniProt P10520); experiment: S. pyogenes streptokinase expression inhibitors, potency, dose response, plasminogen activation absorbance, OD405 (AID 1914); type: functional, Streptococcus pyogenes M1 GAS;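 also: secreted streptokinase activity via plasminogen activation per viability signal from cell pellet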
T2 sequence (P10520 whole entry): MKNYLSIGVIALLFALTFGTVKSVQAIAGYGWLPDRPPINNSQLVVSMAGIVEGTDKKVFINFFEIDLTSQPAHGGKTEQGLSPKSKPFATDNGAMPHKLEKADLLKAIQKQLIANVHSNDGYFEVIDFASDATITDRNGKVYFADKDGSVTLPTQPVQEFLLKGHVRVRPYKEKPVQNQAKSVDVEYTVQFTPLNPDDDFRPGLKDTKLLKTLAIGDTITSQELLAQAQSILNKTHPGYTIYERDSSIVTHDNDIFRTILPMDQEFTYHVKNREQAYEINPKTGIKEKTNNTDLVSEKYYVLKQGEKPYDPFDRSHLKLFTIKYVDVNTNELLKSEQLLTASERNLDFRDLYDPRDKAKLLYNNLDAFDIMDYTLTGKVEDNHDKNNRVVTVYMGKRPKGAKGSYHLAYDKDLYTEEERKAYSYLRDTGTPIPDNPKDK

BJ [19] = experiment: cells; type: functional, cell-based; conditions: Homo sapiens
BJ [20] = experiment: cytotoxicity toward BJ-TERT-LT-ST fibroblasts, dose response, cell-based, RAS-independent, luminescence (AID 1935); type: functional; conditions: Homo sapiens;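 also: BJ fibroblasts immortalized with TERT plus LT and ST oncogenes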
[21] = cytotoxicity toward DRD oncogenic fibroblasts, dose response, cell-based, non-viral oncogenic, luminescence (AID 1934); type: functional; conditions: Homo sapiens
Streptococcus = experiment: Group A Streptococcus viability loss, dose response, counter-screen for streptokinase expression inhibitor project, luminescence, BacTiterGlo (AID 1915); type: functional, organism-based;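 also: potency for reduction of bacterial viability or growth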

Question: Which EC50 [1] does the source give for `Cc1nc(-n2ncc(C#N)c2N)c2c3c(sc2n1)CCC3` here?
Answer: The EC50 was 24.8 µM (active).

Question: What about the EC50 [2] of the same compound?
Answer: The EC50 was 32 µM (active).

Question: Which results are given for `C=CCC1(C#N)C(=S)N=C2CC(C)(C)CC(O)=C2C1c1ccc(Br)cc1` (stereo not drawn)?
Answer: EC50 [1]: 14.6 µM (active); EC50 [2]: 14.9 µM (active)

Question: For `Cc1nc2[nH]c(=S)[nH]c(=O)c2nc1C`, which IC50 [3] is on record?
Answer: The IC50 was > 66 µM (inactive).

Question: And the IC50 [4]?
Answer: Its IC50 is > 66 µM (inactive).

Question: Which results are given for `COC(=O)c1ccc(/C=C/C(=O)c2ccc(OC)c(OC)c2)cc1`?
Answer: EC50 [1]: 8.4 µM (active); EC50 [2]: 7.25 µM (active)

Question: For `C[C@]12CC[C@H]3[C@@H](CC[C@]4(O)C[C@@H](O)CC[C@]34C=O)[C@@]1(O)CC[C@@H]2C1=CC(=O)OC1` [STROPHANTHIDIN], which AC50 [5] is on record?
Answer: Its AC50 is 0.582 µM (active).

Question: And the IC50 [6]?
Answer: The IC50 was > 80 µM (inactive).

Question: And the CC50 (Vero)?
Answer: Its CC50 is 1.22 µM (active).

Question: And the AC50 (Paired box protein Pax-8)?
Answer: Its AC50 is 2.22 µM (active).

Question: Which AC50 [7] does the source give for `CO[C@H]1CN(C)C(=O)c2cc(NC(=O)C3CC3)ccc2OC[C@@H](C)N(Cc2cc(F)ccc2F)C[C@H]1C` here?
Answer: The AC50 was 6.09 µM (active).

Question: With `N#C[C@H]1[C@H](c2ccc(C#CC3CCCCC3)cc2)[C@@H](CO)N1S(=O)(=O)c1ccccc1` as the compound, how does the AC50 [7] read?
Answer: The AC50 was 3.24 µM (active).

Question: For `COc1ccc(-c2ccc([C@@H]3[C@H]4CNC[C@@H]3N4C(=O)Nc3ccc(C(F)(F)F)cc3)cc2)cc1`, which AC50 [7] is on record?
Answer: The AC50 was 15 µM (active).

Question: For `Cn1c(/C=C/c2ccc(Cl)cc2Cl)c([N+](=O)[O-])c(=O)n(C)c1=O`, which CC50 [8] is on record?
Answer: The CC50 was 37.5 µM (active).

Question: And the CC50 (Vero)?
Answer: Its CC50 is 20.5 µM (active).

Question: And the AC50 [9]?
Answer: The AC50 was 6.87 µM (active).

Question: And the AC50 [10]?
Answer: The AC50 was 64.4 µM (active).

Question: And the AC50 [11]?
Answer: Its AC50 is 8.75 µM (active).

Question: Which EC50 [1] does the source give for `O=C(/C=C/c1ccc([N+](=O)[O-])cc1)c1cccnc1` here?
Answer: The EC50 was 5.8 µM (active).

Question: What about the EC50 [2] of the same compound?
Answer: The EC50 was 4.4 µM (active).

Question: For `CCOC(=O)N1CCN(C(=O)C2CCCN(Cc3nc(-c4ccc(Cl)cc4)oc3C)C2)CC1` (stereo not drawn), which IC50 [6] is on record?
Answer: The IC50 was > 80 µM (inactive).

Question: Which EC50 [12] does the source give for `Cc1ccc2c(c1)c1nnc(S)nc1n2CCc1ccccc1` here?
Answer: Its EC50 is 2.1 µM (active).

Question: And the EC50 [13]?
Answer: The EC50 was > 60 µM (not active).

Question: And the IC50 [3]?
Answer: Its IC50 is > 66 µM (inactive).

Question: And the IC50 [4]?
Answer: Its IC50 is > 66 µM (inactive).

Question: Which IC50 [3] does the source give for `O=C(N/N=C/c1cc(Br)c(Br)o1)c1cccnc1` here?
Answer: Its IC50 is > 66 µM (inactive).

Question: What about the IC50 [4] of the same compound?
Answer: The IC50 was 44.3 µM (inactive).

Question: Which EC50 [14] does the source give for `COc1ccc(-c2c/c(=N\c3nc(-c4ccccc4)c(C)s3)c3ccccc3o2)cc1O` here?
Answer: Its EC50 is 5.76 µM (inconclusive).

Question: What about the EC50 [15] of the same compound?
Answer: The EC50 was 4.5 µM (active).

Question: And the EC50 (BJ [16])?
Answer: The EC50 was 1.71 µM (active).

Question: And the EC50 [17]?
Answer: Its EC50 is 5.8 µM (active).

Question: What about the EC50 [18] of the same compound?
Answer: The EC50 was 7.32 µM (active).

Question: And the EC50 (Streptokinase A)?
Answer: The EC50 was 15.5 µM (active).

Question: What about the EC50 (BJ [19]) of the same compound?
Answer: Its EC50 is 3.22 µM (active).

Question: And the EC50 (BJ [20])?
Answer: The EC50 was 1.82 µM (active).

Question: What about the EC50 [21] of the same compound?
Answer: Its EC50 is 1.9 µM (active).

Question: And the EC50 (Streptococcus)?
Answer: Its EC50 is > 150 µM (not active).

Question: What about the CC50 (Vero) of the same compound?
Answer: The CC50 was 3.22 µM (active).

Question: For `CCC(=O)N1CC2(C1)CN(Cc1ccc(Cl)cc1)[C@@H](CO)c1[nH]c3cc(OC)ccc3c12`, which AC50 [7] is on record?
Answer: Its AC50 is 7.24 µM (active).

Question: With `O=C(CCCN1C(=O)CCC1=O)Nc1ccccc1F` as the compound, how does the IC50 [3] read?
Answer: The IC50 was > 66 µM (inactive).

Question: What about the IC50 [4] of the same compound?
Answer: The IC50 was > 66 µM (inactive).
